The test system of assay [1] is mice having TNBS-induced colitis. Kind of assay: TNBS-induced colitis in mice (disease activity score, colonic MPO activity). In kind it is in vivo, Balb/c mice. The procedure: A standard experimental animal model of colitis induced by intracolonic administration of 2,4,6-trinitrobenzene sulfonic acid (TNBS) to mice is used in the following example. A detailed description of this model has been published (Santucci et al. (2003) Gastroenterology 124:1381-94) and is incorporated herein by reference. Briefly, 6-8 week old Balb/c mice were given TNBS intracolonically at a dose of 1.5 mg in 0.1 mL of 30% ethanol. The mice were randomized to the various treatment groups (n=6 per group). Beginning one hour later and continuing every 12 h for 5 days, the mice were treated orally with vehicle (1% carboxymethylcellulose (CMC)), 5-ASA (mesalamine) (25, 50 or 75 mg/kg) or with equimolar doses of 2-hydroxy-5-amino-benzoic acid 4-(thioxo-5H-[1,2]dithiol-3-yl)-phenyl ester hydrochloride (Compound XXXV) (130 mg/kg), or with […] (100 mg/kg), 50% (66 mg/kg) and 25% (33 mg/kg) of that dose. The mice were evaluated (blindly) on the final day of the study for the presence of diarrhea and fecal occult blood, and their body weights were measured. […] After sacrifice, a sample of the colon was excised for measurement of myeloperoxidase (MPO) activity, as a marker of granulocyte infiltration. All results were compared to those obtained with healthy mice as well.
FIGS. 3 and 4 show the Disease Activity Index and MPO activity, respectively, using the same experimental animal model of colitis as described above, in which Compound XXXV (130 mg/kg) was compared to equimolar doses of its two constituents, mesalamine (50 mg/kg) and 5-p-hydroxyphenyl-[…] (ADT-OH) (80 mg/kg), and a mixture of mesalamine (50 mg/kg) and ADT-OH (80 mg/kg). *p<0.05 versus the vehicle-treated group. Each group consisted of at least 5 rats.
FIGS. 6 and 7 show the Disease Activity Index and MPO, respectively, using the same experimental animal model of colitis as described above, in which Compound XXVII (100 mg/kg) was compared to equimolar doses of its two constituents, mesalamine (50 mg/kg) and 4-hydroxythiobenzamide (4-HTB) (50 mg/kg), mesalamine alone (50 mg/kg) and 4-HTB alone (50 mg/kg). *p<0.05 versus the vehicle-treated group. Each group consisted of at least 5 rats.
(§1) The same model was used as described above. In this example, the effects of mesalamine (50 mg/kg) were compared to those of equimolar doses of Compound XXXV. In addition to measuring the severity of colitis by measuring disease activity score and MPO activity, tissues were processed for measurement of a number of genes for inflammatory cytokines and other mediators.

Assay [2] relates to COX-1 mRNA. Nature of the assay: Colonic mRNA expression by RT-PCR in TNBS-induced colitis. To be noted: dose equimolar to mesalamine 50 mg/kg; FIG. 13. It counts as in vivo, mice. Here is the method:
as §1
(§2) In particular, mRNA expression in mice of tumour necrosis factor-alpha (TNF-α), interferon gamma (IFN-[…]γ), colonic interleukin (IL)-1, IL-2, IL-10, IL-12 p40, RANTES, cyclooxygenase (COX)-1, COX-2, constitutive endothelial nitric oxide synthase (eNOS), and inducible NOS (iNOS) was measured as described in Wallace et al. (1999) Gastroenterology 117: 557-566, incorporated herein by reference.
(§3) Briefly, reverse transcription-polymerase chain reaction (RT-PCR) was used to detect and quantify mRNA of the particular cytokine/chemokine/enzyme. Glyceraldehyde-3-phosphate dehydrogenase (GAPDH) was used as the “housekeeping gene” for mRNA expression (i.e., as an internal control). For each sample, the ratio of the amplification of the target gene to the amplification of GAPDH (expression of each is measured by performing densitometry on gels) was obtained. Comparisons were then made between the relative amplification (expression) of the target gene in tissues for the treatment groups in comparison to the expression in tissues from healthy controls. Thus, the data shown in FIGS. 7-14 represent the relative expression of the target gene (normalized to GAPDH expression) as a ratio to the expression in healthy controls.

Assay [3] has as its system COX-2 mRNA. Described as above. It counts as in vivo, mice. To be noted: dose equimolar to mesalamine 50 mg/kg; FIG. 13. The procedure:
as §1, §2, §3

The test system of assay [4] is IL-10 mRNA. The description is as above. In kind it is in vivo, mice. To be noted: dose equimolar to mesalamine 50 mg/kg; normalized to GAPDH, ratio to healthy controls. Here is the method: as §1, §2, §3
Assay [5] concerns eNOS mRNA. The description is as above. It counts as in vivo, mice. To be noted: dose equimolar to mesalamine 50 mg/kg; FIG. 14. The procedure:
as §1, §2, §3

In assay [6] the test system is iNOS mRNA. The assay is described as above. To be noted: dose equimolar to mesalamine 50 mg/kg; FIG. 14. In kind it is in vivo, mice. Here is the method: as §1, §2, §3
Assay [7] has as its system mRNA for several pro-inflammatory cytokines and chemokines. The description is as above. To be noted: dose equimolar to mesalamine 50 mg/kg; normalized to GAPDH, ratio to healthy controls. In kind it is in vivo, mice. Here is the method:
as §1, §2, §3

Structures are written as SMILES.

As to `Nc1ccc(O)c(C(=O)Oc2ccc(-c3cc(=S)ss3)cc2)c1` [Compound XXXV, 5-Amino-2-hydroxy-benzoic acid 4-(5-thioxo-5H-[1,2]dithiol-3-yl)-phenyl ester], the “Disease Activity Index” value in assay [1] (Compound XXXV 130 mg/kg vs mesalamine 50 mg/kg, ADT-OH 80 mg/kg and their mixture, FIG. 3) was “almost twice as effective as either mesalamine alone, ADT-OH alone or a mixture of mesalamine and ADT-OH”. Moreover, the “MPO activity (granulocyte infiltration)” value in assay [1] (Compound XXXV 130 mg/kg, FIG. 4) is listed as “significantly reduced inflammation”. Further, the “every endpoint of FIGS. 7-14 (MPO activity, disease activity score, mRNA expression)” value in assay [1] (dose equimolar to mesalamine 50 mg/kg, compared with mesalamine) was “superior to mesalamine in every endpoint”. Moreover, in assay [1] (dose-ranging, oral every 12 h for 5 days, equimolar doses of 50 mg/kg and 75 mg/kg, compared with mesalamine, FIG. 1), the “Disease Activity Score” value was “superior to mesalamine in reducing the activity score”. In addition, the “myeloperoxidase (MPO) activity” value in assay [1] (dose-ranging, oral every 12 h for 5 days, highest doses tested, FIG. 2) is recorded as “significantly reduced (almost in half)”. Also, in assay [2], the “COX-1 mRNA expression” value was “suppressed”. Moreover, in assay [3], the “COX-2 mRNA expression” value was “suppressed”. The “expression of IL-10 mRNA” value in assay [4] was “did not suppress expression of IL-10 mRNA”. In addition, the “eNOS mRNA expression” value in assay [5] is recorded as “suppressed”. In addition, the “iNOS mRNA expression” value in assay [6] is on record as “suppressed”. Further, the “expression of mRNA for pro-inflammatory cytokines and chemokines” value in assay [7] was “suppressed expression of mRNA for several pro-inflammatory cytokines and chemokines”.

The record behind these values is patent publication US20110098257A1, “DERIVATIVES OF 4- OR 5-AMINOSALICYLIC ACID” (ANTIBE THERAPEUTICS INC., priority 2005, published 2011).
